Experimental data: patent US11578054B2, “Compounds useful as immunomodulators” (Bristol-Myers Squibb Company, priority 2018, dated 2023)

Target: PD-1/PD-L1 (Homo sapiens (Human), UniProt Q9NZQ7)
Experiment: PD-1/PD-L1 Homogenous Time-Resolved Fluorescence (HTRF) binding assay
Conditions: PD-L1-His 10 nM, PD-1-Ig 20 nM
Text: The ability of the compounds of formula (I) to bind to PD-L1 was investigated using a PD-1/PD-L1 Homogenous Time-Resolved Fluorescence (HTRF) binding assay.
Homogenous Time-Resolved Fluorescence (HTRF) binding assay.
The interaction of PD-1 and PD-L1 can be assessed using soluble, purified preparations of the extracellular domains of the two proteins. The PD-1 and PD-L1 protein extracellular domains were expressed as fusion proteins with detection tags, for PD-1, the tag was the Fc portion of Immunoglobulin (PD-1-Ig) and for PD-L1 it was the 6 histidine motif (PD-L1-His). All binding studies were performed in an HTRF assay buffer consisting of dPBS supplemented with 0.1% […] bovine serum albumin and 0.05% (v/v) Tween-20. For the h/PD-L1-His binding assay, inhibitors were pre-incubated with PD-L1-His (10 nM final) for 15m in 4 μl of assay buffer, followed by addition of PD-1-Ig (20 nM final) in 1 µl of assay buffer and further incubation for 15m. HTRF detection was achieved using europium crypate-labeled anti-Ig (1 nM final) and allophycocyanin (APC) labeled anti-His (20 nM final). Antibodies were diluted in HTRF detection buffer and 5 μl was dispensed on top of the binding reaction. The reaction mixture was allowed to equilibrate for 30 minutes and the resulting signal (665 nm/620 nm ratio) was obtained using an EnVision fluorometer. Additional binding assays were established between the human proteins PD-1-Ig/PD-L2-His (20 & 5 nM, respectively) and CD8O-His/PD-L1-Ig (100 & 10 nM, respectively).
Recombinant Proteins: Human PD-1 (25-167) with a C-terminal human Fc domain of immunoglobulin G (Ig) epitope tag [hPD-1 (25-167)-3S-IG] and human PD-L1 (18-239) with a C-terminal His epitope tag [hPD-L1(18-239)-TVMV-His] were expressed in HEK293T cells and purified sequentially by ProteinA affinity chromatography and size exclusion chromatography. Human PD-L2-His and CD8O-His was obtained through commercial sources.
The table below lists the IC50 values for representative examples of this disclosure measured in the PD-1/PD-L1 Homogenous Time-Resolved Fluorescence (HTRF) binding assay.

Sequence of PD-1/PD-L1 (Q9NZQ7 other isoform, or with tags, fused parts or gaps): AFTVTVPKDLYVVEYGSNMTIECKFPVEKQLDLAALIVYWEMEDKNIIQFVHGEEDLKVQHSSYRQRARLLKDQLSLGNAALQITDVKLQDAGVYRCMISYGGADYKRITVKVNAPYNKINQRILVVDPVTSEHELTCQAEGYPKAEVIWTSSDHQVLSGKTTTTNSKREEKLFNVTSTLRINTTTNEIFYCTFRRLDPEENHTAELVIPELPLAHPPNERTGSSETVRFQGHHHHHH

Compound: N#Cc1cncc(COc2cc(OC3CCc4c(-c5cccc(OCCCNC[C@H](O)CO)c5Cl)cccc43)c(Cl)cc2CN[C@@H](CCO)C(=O)O)c1 (stereo partly drawn) [Example 1021, (5-Chloro-4-((4-(2-chloro-3-(3-(((S)-2,3-dihydroxypropyl)amino)propoxy)phenyl)-2,3-dihydro-1H-inden-1-yl)oxy)-2-((5-cyanopyridin-3-yl)methoxy)benzyl)-L-homoserine]
- IC50: 1 nM
